Where a name gives a salt, the structure may show the parent alone.
What was measured:
[1] = Pharmacokinetic evaluation: concentration of compound 1 in plasma after single administration to SD male rats; format: in vivo; details: for BA / AUC(0-inf) / Cmax / Tmax / half-life: 5 mg/kg as compound 1, single, SD male rats; for AUC(0-inf) / Cmax / Tmax / half-life: rat, plasma
Protocol: (§1) Quantitative determination of the concentration of the compound 1 in the following Test Examples and Reference Examples was performed using ultra-high performance liquid chromatography with a single quadrupole mass spectrometer as a detector.
To evaluate the sustained-release ability of fine particle B, the concentration of the compound 1 in blood was measured over time after subcutaneous administration of the fine particle B or the compound 1 bulk powder to rats or after oral administration of the compound 1 bulk powder to rats. The fine particle B was suspended in physiological saline and the compound 1 bulk powder was dissolved in physiological saline, and then 5 mg/kg each as an amount of the compound 1 was singly administered to SD male rats. After administration, blood was collected over time from the tail vein, and the blood was transferred into a micro test tube treated with heparin, and immediately cooled in ice. After cooling in ice, the blood was immediately centrifuged at 4° C. and 10,000 g for 10 minutes. The concentration of the compound 1 in plasma thus obtained was quantitatively determined using ultra-high performance liquid chromatography with a single quadrupole mass spectrometer as a detector.
Cmax, Tmax, T1/2, AUC0-∞ and BA represent maximum blood concentration (concentration at the peak of blood concentration curve), time to reach maximum blood concentration (time to reach the peak of blood concentration curve), half-life of the concentration of drug in blood, area under curve from initiation of administration to drug elimination and bioavailability, respectively.
To evaluate the sustained-release ability of fine particle F, the concentration of the compound 1 in blood was measured over time after subcutaneous administration of the fine particle F prepared in Test Example 2-1 or the compound 1 bulk powder to rats. The method was same as in Test Example 1-3. Specifically, the fine particle F was suspended in physiological saline and the compound 1 bulk powder was dissolved in physiological saline, and then 5 mg/kg each as an amount of the compound 1 was singly subcutaneously administered to SD male rats. After subcutaneous administration, blood was collected over time from the tail vein, and the blood was transferred into a micro test tube treated with heparin, and immediately cooled in ice. After cooling in ice, the blood was immediately centrifuged at 4° C. and 10,000 g for 10 minutes. The concentration of the compound 1 in plasma thus obtained was quantitatively determined using ultra-high performance liquid chromatography with a single quadrupole mass spectrometer as a detector.
To evaluate the sustained-release ability of the hydrogel a prepared in Reference Example 3-1, the concentration of the compound 1 in blood was measured over time after subcutaneous administration of the hydrogel a or the compound 1 bulk powder to rats. Specifically, the hydrogel a or the compound 1 bulk powder at a dose of 5 mg/kg as an amount of the compound 1 was singly subcutaneously administered to SD male rats. After subcutaneous administration, blood was collected over time from the tail vein, and the blood was transferred into a micro test tube treated with heparin, and immediately cooled in ice. After cooling in ice, the blood was immediately centrifuged at 4° C. and 10,000 g for 10 minutes. The concentration of the compound 1 in plasma thus obtained was quantitatively determined using ultra-high performance liquid chromatography with a single quadrupole mass spectrometer as a detector. […]

[2] = Evaluation test of elution in phosphate-buffered saline (pH 7.4), elution rate of compound 1 by UPLC-MS; format: physicochemical; details: phosphate-buffered saline pH 7.4, 37°C, shaking 60 strokes/min
Protocol: as §1
An evaluation test of the elution of the fine particle a prepared in Reference Example 1-1 was performed in the same manner as in Test Example 1 mentioned later. Specifically, the fine particle a (10 mg) was added to phosphate-buffered saline (pH 7.4, 30 mL), and using a shaker, the mixture was horizontally shaken at 37° C. for 24 hours at a shaking speed of 60 strokes/min and with a shaking width of 2.0 cm/stroke to evaluate “elution”. Quantitative determination of the concentration of the compound 1 was performed using ultra-high performance liquid chromatography with a single quadrupole mass spectrometer as a detector to calculate an elution rate. The test results of the fine particle a are shown in Table 1 below together with the test results of the compound 1 bulk powder obtained in Test Example 1 mentioned later.
Using the fine particles A, B, C, D and E prepared in Test Example 1-1 and the compound 1 bulk powder, an evaluation test of each elution was performed. Each of the fine particles A, B, C, D and E and the compound 1 bulk powder (10 mg) was added to phosphate-buffered saline (pH 7.4, 30 mL), and using a shaker, the mixtures were horizontally shaken at 37° C. for 24 hours at a shaking speed of 60 strokes/min and with a shaking width of 2.0 cm/stroke to evaluate “elution”. Quantitative determination of the concentration of the compound 1 was performed using ultra-high performance liquid chromatography with a single quadrupole mass spectrometer as a detector to calculate an elution rate.
Using the fine particle F prepared in Test Example 2-1 and the compound 1 bulk powder, an evaluation test of each elution was performed in the same manner as in Test Example 1. Each of the fine particle F and the compound 1 bulk powder (10 mg) was added to phosphate-buffered saline (pH 7.4, 30 mL), and using a shaker, the mixtures were horizontally shaken at 37° C. for 72 hours at a shaking speed of 60 strokes/min and with a shaking width of 2.0 cm/stroke to evaluate “elution”.

[3] = sc, subcutaneous administration
[4] = subcutaneous administration, 5 mg/kg as compound 1, SD male rats

- BA ([1]; oral administration): 41%
- AUC(0-inf) [1, 3]: 8550 ± 600 ng·h/mL
- Cmax [1, 3]: 9600 ± 700 ng/mL
- Tmax [1, 3]: 15 min
- half-life [1, 3]: 21.6 min
- AUC(0-inf) ([1]; oral administration): 5160 ± 200 ng·h/mL
- Cmax ([1]; oral administration): 3100 ± 500 ng/mL
- Tmax ([1]; oral administration): 15 min
- half-life ([1]; oral administration): 68.4 ± 12 min
- Concentration of compound 1 in plasma at 12 hours after administration [1, 4]: below the detection limit
- Concentration of compound 1 in plasma at 24 hours after administration [1, 4]: below the detection limit
- BA ([1]; subcutaneous administration): 67%
- Elution rate ([2]; Time 0 h): 0%
- Elution rate ([2]; Time 0.5 h): 83.73 ± 4.31%
- Elution rate ([2]; Time 1 h): 93.59 ± 1.63%
- Elution rate ([2]; Time 3 h): 94.77 ± 2.26%
- Elution rate ([2]; Time 6 h): 92.00 ± 2.45%
- Elution rate ([2]; Time 12 h): 91.63 ± 1.84%
- Elution rate ([2]; Time 24 h): 97.10 ± 1.96%
- Elution rate ([2]; Time 48 h): 91.10 ± 3.80%
- Elution rate ([2]; Time 72 h): 93.29 ± 1.36%
SMILES: CCS(=O)(=O)Nc1ncc(C(F)(F)F)cc1NC(=O)C1CCCCC1 [Compound 1 bulk powder, N-(2-ethylsulfonylamino-5-trifluoromethyl-3-pyridyl)cyclohexanecarboxamide-monosodium salt-monohydrate]

Source: patent publication US20200289481A1, “SUSTAINED-RELEASE PHARMACEUTICAL COMPOSITION” (ISHIHARA SANGYO KAISHA, LTD., priority 2017, published 2020)
